The nature of data set [1]: Oxygen release from peroxides in water or nutrient solution and its adjustment. It is filed as physicochemical. The settings on record: for oxygen level as nutrient strength increases: nutrient solution with or without companion cations, FIGS. 17 and 18; for increase of oxygen liberated per millimole of EDTA: slope of linear fit, FIG. 10. The procedure:
One hundred milligrams of each of the above solid compositions comprising oxidizing agents was put in a 50 ml polypropylene tube, respectively, unless specialized. 50 ml de-ionized water or nutrient solution was put into the tubes. The strength of the nutrient solutions was 25%, 50%, 100%, 200% or 400% of Yan's formula (Yan, F. et al., “Adaptation of active proton pumping and plasmalemma ATPase activity of corn roots to low root medium pH,” Plant Physiology, 117:311-319 (1998)). The oxygen solutions were allowed to equilibrate over night before any measurements were made.
Oxygen contents in the solutions were determined with an oxygen electrode and ASET system (Applicable Electronics, Inc). Calibration was made by nitrogen aerating deionized water and air equilibrated deionized water. The deionized water consists of 0% oxygen level and the air equilibrated deionized water consists of 21% oxygen content. The temperature of the deionized water was measured and recorded for every measurement. The actual oxygen content in the deionized water at a specific temperature was derived from a handbook of chemistry (David R. Lide, Handbook of Chemistry and Physics, 79th Edition, 1998-1999, pp. 8-87). A regressive equation was formed based on data from calibration calculations and the handbook. All of the observed values were changed into oxygen contents in micromoles through the regressive equation.
Different levels of companion cations of peroxides or chelate were added to the sample solutions. For example, EDTA was added to the 50 ml tubes with peroxide solutions. The peroxide solutions were made in both deionized water and nutrient solutions. After equilibrating overnight, the oxygen contents of the adjusted solutions were analyzed.

For another data set, the system named is ADH of corn roots. In words: ADH activity of roots of flooded corn plants (FIG. 23). The class given is in vivo. To be noted: flooded for 3 days.
Another data set has as its system Bald cypress seedlings. In words: Flooding and salinity of Bald cypress seedlings. It is filed as in vivo. The settings on record: 8 ppt salinity. The source says:
Bald cypress is a plant of great ecological and economic significance in Florida. However, these tough, tolerant, inexpensive and somewhat idiosyncratic trees are at the heart of a fast-disappearing ecosystem. Flooding and salinity caused by hurricanes have accelerated the disappearance of the species. Five basins were set up to mimic flooding basins to study the effects of a solid composition of the invention on alleviating the impact of flooding and salinity on Bald cypress seedlings. These basins were established by using plastic swimming pools with 185×152×23 cm plastic tubs for the combined treatment of flooding and salinity to bald cypress seedlings.
Five levels of salinity were presented: 0, 2, 4, 6 and 8 ppt in sodium chloride. Three flooding levels were presented: 0%, 50% and 100% root submergence. 0% flooding level consisted of 100% of the pots being above the water surface; 50% flooding level consisted of 50% of the height of the pots being submerged; and 100% flooding level consisted of 100% of the height of the pots being submerged.
Two oxygen bioavailable levels were provided for those seedlings that were fully flooded with 8 ppt salinity: (1) with composition comprising oxidizing agent or (2) without composition comprising oxidizing agent in the potted soil. […] Survival rates of the potted seedlings were observed and calculated for each of the treatments.

Data set [2] can be described thus: Solubility product (Ksp) of the peroxides. The class given is physicochemical.
The test system of data set [3] is ADH of corn seedlings. In words: ADH activity of flooded corn seedlings grown in soil in pots with oxygen fertilizers (FIG. 28). It is filed as in vivo.
Experimental: ADH and NR were extracted in the same extraction buffer including 50 mM Tris-HCl (pH 8.0), 1 mM EDTA, 12 μM mercaptoethanol, and 0.05 mg DTT/ml. Frozen root tissues were ground rapidly in a chilled mortar and pestle with the above chilled extraction buffer. The homogenate was centrifuged at 15 000 g at 4° C. for 15 minutes. One hundred μl of supernatant was added to 800 μl of reaction solution containing 50 mM Tris-HCl buffer at pH 9.0, 1 mM EDTA, and 1 mM NAD. The assay uses 15% (v/v) ethanol as the substrate and measures the production of NADH. Measurement of NADH formation was performed in a spectrophotometer (DU 64, Beckman Instruments, Fullerton, Calif.) for 60 seconds at 340 nm. A unit of ADH is defined as the production of 1 nmol of NADH min^−1 mg^−1 protein.
Data set [4] relates to corn seeds. To be noted: for germination rate: FIG. 2. How it is done:
Corn seeds of FR27 x FRM017 (GRADE: 24RD) were provided by Illinois Foundation Seeds Inc. Two sets of seeds were used: one set of seeds consisted of fresh seeds and the other set of seeds consisted of seeds that were […].
H2O2 methods: 30 seeds and 50 ml 0.5 mM Ca (as CaSO4) with 3/5000, 3/4000, 3/3000, 3/2000, 3/1000 or 3/100 H2O2, separately, were placed into 9 cm dishes. The seeds were soaked in these solutions for 24 hours and then put on and covered by wet napkins. The napkins were wetted in the soaking solutions, respectively.

The subject of data set [5] is corn seeds. To be noted: 3/2000 hydrogen peroxide for one day, embryos or endosperm, FIG. 6. The procedure:
The tested seeds were stabilized as described above. The seed samples were soaked in 0.5 mM CaSO4 solution with or without 3/2000 hydrogen peroxide for one day before any measurements were made. Pt/Ir oxygen electrodes were used. The microelectrodes were calibrated before and after each experiment. Calibrations were performed in deionized water saturated with air (which includes 21% oxygen concentration) and then bubbled with nitrogen gas for at least 30 min (so as to provide 0% oxygen concentration). Ten scans were done on either embryos or endosperms.

The subject of data set [6] is Alcohol dehydrogenase (ADH) of corn embryos. To be noted: 3/2000 hydrogen peroxide, embryos facing downward, 48 hours after germination at 25° C., FIG. 4.
Experimental: Alcohol dehydrogenase (“ADH”) activities of corn embryos placed in environments with different concentrations of bioavailable oxygen at 48 hours after germination at 25° C. were observed. Before germination, corn seeds were soaked in 0.5 mM CaSO4 solution, in aeroponics, or in 3/2000 H2O2 for 24 hours. All of the embryos were exposed to air except for one sample group treated with water, which was placed into soil.
Following treatment, each corn seed was cut into two halves on the embryo. Four halves of embryos were homogenized in extraction buffer including 50 mM Tris-HCl (pH 8.0), 1 mM EDTA, 0.5 mg/ml DTT, and 12 μM mercaptoethanol. The suspension solution of the enzyme was centrifuged twice at 15000 rpm for 5 min in order to separate oil (on the top) from pellets (at the bottom). The supernatant from the second centrifuge was used to measure ADH activity.
100 μl of the enzyme solution and 900 μl of reaction solution that included 50 mM Tris-HCl (pH 9.0), 1 mM EDTA, and 1 mM NAD were incubated in 1.5 ml Eppendorf tubes in a water bath at 30° C. for 3 min. Then, 100 μl 15% ethanol and the reaction solution were added directly to cuvette. Reaction time was 1 min. in the cuvette at 340 nm. The assay uses ethanol as the substrate and measures the production of NADH. […] The relative ADH activity was calculated based on taking the ADH activity of corn seeds germinated in aeroponics as 100%.
In data set [7] the test system is corn seed embryos or endosperms. To be noted: 3/2000 hydrogen peroxide for one day, medium 100 μM CaCl2, FIG. 5.
Experimental: 1.5 mm borosilicate glass capillaries (cat no. TW150-4) that were 10 cm in length were pulled into two micropipettes through a Sutter P-97 at 545° C. The freshly pulled micropipettes were silanized at 200° C. with N,N-Dimethyltrimethylslylamine according to Smith's method (Smith, P J S et al., “Self-referencing, non-invasive, ion selective electrode for single cell direction of trans-plasma membrane,” Microscopy Research and Technique, 46:398-417 (1999)).
Micropipettes were backfilled with H^+ probe backfilling solution of 50 mM KCl and 50 mM HK2PO4.
45 g of Sylgard 184 silicone elastomer and 5 g of Sylgard 184 curing agent (Dow Corporation, USA) were poured into the bottom of a 10 cm Pyrex dish in order to provide a medium for stabilizing the tested treated seeds. One seed was appropriately stabilized in the center of the Pyrex dish with 4 to 5 stainless-steel needles.
Microelectrodes were calibrated before and after each experiment. Calibrations were performed at standard pH 6, 7, and 8 solutions (Fisher Scientific) at 25° C. The Nernst Slopes (in mV decade^−1) were equal or close to 59. Following calibration, the microelectrode was positioned on both the embryos and endosperm of the targeted seed. Then, the embryo and endosperm were, respectively, scanned 100 μm by 100 μm. At least 10 scans were done on either embryo or endosperm.
The test system of data set [8] is ADH of corn seedlings. To be noted: nutrient solution of 2 mM hydrogen peroxide, FIG. 26.
Experimental: The enzyme assay was performed according to the procedures described by Chung and Ferl (“Arabidopsis Alcohol Dehydrogenase Expression in Both Shoots and Roots Is Conditioned by Root Growth Environment,” Plant Physiol, 121:429-436 (1999)) and modified slightly. ADH and NR were extracted in the same extraction buffer including 50 mM Tris-HCl (pH 8.0), 1 mM EDTA, 12 μM mercaptoethanol, and 0.05 mg DTT/ml. Frozen root tissues were ground rapidly in a chilled mortar and pestle with the above chilled extraction buffer. The homogenate was centrifuged at 15 000 g at 4° C. for 15 minutes. One hundred μl of supernatant was added to 800 μl of reaction solution containing 50 mM Tris-HCl buffer at pH 9.0, 1 mM EDTA, and 1 mM NAD. The assay uses 15% (v/v) ethanol as the substrate and measures the production of NADH. Measurement of NADH formation was performed in a spectrophotometer (DU 64, Beckman Instruments, Fullerton, Calif.) for 60 seconds at 340 nm. A unit of ADH is defined as the production of 1 nmol of NADH min^−1 mg^−1 protein.
Data set [9] deals with nitrate reductase (NR) of corn seedlings. The settings on record: nutrient solution of 2 mM hydrogen peroxide, FIG. 27.
Experimental: NR assays were performed essentially as described by the protocol of Datta and Sharma (Rupali Datta and Rameshwar Sharma, “Temporal and spatial regulation of nitrate reductase and nitrite reductase in green maize leaves,” Plant Science, 144:77-83 (1999)). NR activity was measured immediately. 200 μl of supernatant was added to 800 μl of reaction solution consisting of 50 mM Tris-HCl buffer (pH 8.0), 1 mM EDTA, 100 μM NADH, 10 mM KNO3 and 1 μM Na2MoO4 in a 2 ml eppendorf tube. The reaction was performed in a water bath of 30° C. and terminated after 60 min by adding 500 μl of an equal volume of sulfanilamide (1% [w/v] in 3 n HCl) and naphthylethylene-diamine dihydrochloride (0.05% [w/v]) to the reaction mixture. The samples were colorimetrically measured at 540 nm. One unit of NR activity was defined as the amount required to produce 1 nmol of nitrite min^−1 mg^−1 protein.
The subject of another data set is corn root. To be noted: nutrient solution with 1 mM H2O2 for two days, air bubbling (normoxia), FIG. 31.
For data set [10] the following is noted: cited from earlier work.

The values below come from US20090305888A1, “Materials and Methods for Providing Oxygen to Improve Seed Germination and Plant Growth” (priority 2006, published 2009).

Structures are written as SMILES. Like-named read-outs stand apart in the source and are kept apart here.

With `[Ca+2].[O-][O-]` [calcium peroxide], the “oxygen released into water” value in data set [1] (500 mg solid composition in 50 ml deionized water, FIG. 9) is given as “released more oxygen than magnesium peroxide”. Further, in [1], the “oxygen level as nutrient strength increases” value is listed as “increases when the nutrient strength increases” and the “increase of oxygen liberated per millimole of EDTA” value is recorded as “about 19 micromoles”. Besides, the “ADH level compared with control” value in the data set with ADH of corn roots (18 g per pot) is listed as “almost as good as the control”. Besides, in the data set with ADH of corn roots, the “ADH activity in roots as more solid composition was used” value (“ADH activity in roots” below) is given as “the less ADH activity observed in the tested roots”. The death of seedlings entry with Bald cypress seedlings (100% flooding) is on record as “No seedlings died”. Moreover, in the data set with Bald cypress seedlings (100% roots submerged for four days, 20 g per pot, FIG. 32), the growth of seedlings result is “could grow”. Further, the “Ksp relative to magnesium peroxide” value in data set [2] is “about 3000 times”. Also, the “effect on ADH of seedlings suffering from flooding” value in the data set on ADH of corn seedlings [3] was “greatly lowered the ADH of the seedlings suffering from flooding”.
With `OO` [hydrogen peroxide], the root lengths with corn seeds [4] (3/100 H2O2, third day after germination) was 6.8±1.7 mm; in the data set with corn seeds [4] (3/2000 H2O2, third day after germination), 34.8±1.7 mm. Also, in the data set with corn seeds [4] (3/2000 H2O2, FIG. 1), the “germination rates among varying concentrations of H2O2” value is “the best germination rates”. In the data set on corn seeds [4] (3/2000 H2O2, FIG. 3), the “germination at 24 hours” value is “all of the seeds were able to germinate at 24 hours”. For the same compound, the germination rate in the data set on corn seeds [4] (3/2000 H2O2, new seeds) is recorded as 95.6%; with corn seeds [4] (3/2000 H2O2, old seeds), 94.4%. For the same compound, the “germination rates of corn seeds compared with non-hydrogen peroxide exposure” value with corn seeds [4] (H2O2 3/5000 to 3/100, 48 hours after germination, FIG. 1) was “significantly better germination rates than non-hydrogen peroxide exposure”. Moreover, in the data set with corn seeds [5], the “oxygen consumption rate relative to without hydrogen peroxide” value is reported as “about two”. Further, in data set [6], the “diminished ADH activity” value is reported as “about 40%”. For the same compound, the proton flux direction result in data set [7] is reported as “proton efflux occurs heavily”. The “ADH level compared with control” value in the data set with ADH of corn seedlings [8] is given as “slightly higher that that of the control”. Also, the “ADH level compared with hypoxic seedlings” value in the data set with ADH of corn seedlings [8] is “greatly lower than those of hypoxic seedlings”. In addition, in data set [9], the “NR level compared with hypoxic seedlings” value is given as “greatly lower than those of hypoxic seedlings”. The “protons excreted by roots relative to hypoxia or anoxia” value in the data set on corn root is listed as “seven to ten”.
Regarding `[Mg+2].[O-][O-]` [magnesium peroxide], in data set [1], the “oxygen level as nutrient strength increases” value is “very smooth when the nutrient strength increases” and the “increase of oxygen liberated per millimole of EDTA” value is listed as “about 14 micromoles”. The “ADH activity in roots” value in the data set on ADH of corn roots is given as “the less ADH activity observed in the tested roots”. The “effect on ADH of seedlings suffering from flooding” value in the data set on ADH of corn seedlings [3] is recorded as “greatly lowered the ADH of the seedlings suffering from flooding”. Moreover, the “oxygen released by zero order constant release” value in [10] (after the first six days) is 90%. For the same compound, in data set [10] (first six days), the “oxygen released by first order release” value is 10%.
Regarding `O=C([O-])[O-].O=C([O-])[O-].OO.OO.OO.[Na+].[Na+].[Na+].[Na+]` [sodium percarbonate], the “ADH level compared with flooded treatment” value with ADH of corn roots (5 g) was “almost as bad as the flooded treatment without the supply of solid compositions”. In the data set on ADH of corn roots, the “ADH activity in roots” value was “the less ADH activity observed in the tested roots”.
